From ChEMBL document CHEMBL2202954, “The effect of PLC-γ2 inhibitors on the growth of human tumour cells” (2012)

Legend:
Format in all cases: functional
[1] = system: A498; assay: Cytotoxicity against human A498 cells assessed as cellular growth at 10 uM by SRB assay
[2] = system: UACC-62; assay: Cytotoxicity against human UACC62 cells assessed as cellular growth at 10 uM by SRB assay
[3] = system: HT-29; assay: Cytotoxicity against human HT-29 cells assessed as cellular growth at 10 uM by SRB assay
[4] = system: MOLT-4; assay: Cytotoxicity against human MOLT4 cells assessed as cellular growth at 10 uM by SRB assay
[5] = system: IGROV-1; assay: Cytotoxicity against human IGROV1 cells assessed as cellular growth at 10 uM by SRB assay
[6] = system: HL-60(TB); assay: Cytotoxicity against human HL-60(TB) cells assessed as cellular growth at 10 uM by SRB assay
[7] = system: MDA-MB-435; assay: Cytotoxicity against human MDA-MB-435 cells assessed as cellular growth at 10 uM by SRB assay
[8] = system: SF-295; assay: Cytotoxicity against human SF295 cells assessed as cellular growth at 10 uM by SRB assay
[9] = system: COLO 205; assay: Cytotoxicity against human COLO205 cells assessed as cellular growth at 10 uM by SRB assay
[10] = system: SK-MEL-2; assay: Cytotoxicity against human SK-MEL-2 cells assessed as cellular growth at 10 uM by SRB assay
[11] = system: Malme-3M; assay: Cytotoxicity against human MALME-3M cells assessed as cellular growth at 10 uM by SRB assay
[12] = system: EKVX; assay: Cytotoxicity against human EKVX cells assessed as cellular growth at 10 uM by SRB assay
[13] = system: OVCAR-5; assay: Cytotoxicity against human OVCAR5 cells assessed as cellular growth at 10 uM by SRB assay
[14] = system: MDA-MB-231; assay: Cytotoxicity against human MDA-MB-231 cells assessed as cellular growth at 10 uM by SRB assay
[15] = system: CAKI-1; assay: Cytotoxicity against human Caki1 cells assessed as cellular growth at 10 uM by SRB assay
[16] = system: HOP-92; assay: Cytotoxicity against human HOP92 cells assessed as cellular growth at 10 uM by SRB assay
[17] = system: SN12C; assay: Cytotoxicity against human SN12C cells assessed as cellular growth at 10 uM by SRB assay
[18] = system: DU-145; assay: Cytotoxicity against human DU145 cells assessed as cellular growth at 10 uM by SRB assay
[19] = system: OVCAR-4; assay: Cytotoxicity against human OVCAR4 cells assessed as cellular growth at 10 uM by SRB assay
[20] = system: SR; assay: Cytotoxicity against human SR cells assessed as cellular growth at 10 uM by SRB assay

Row | SMILES | Activity [1] [%] | Activity [2] [%] | Activity [3] [%] | Activity [4] [%] | Activity [5] [%] | Activity [6] [%] | Activity [7] [%] | Activity [8] [%] | Activity [9] [%] | Activity [10] [%] | Activity [11] [%] | Activity [12] [%] | Activity [13] [%] | Activity [14] [%] | Activity [15] [%] | Activity [16] [%] | Activity [17] [%] | Activity [18] [%] | Activity [19] [%] | Activity [20] [%]
1 | O=C(NCCc1ccc(Cl)cc1)c1[nH]c2ccccc2c1Cl | 77.04 | 81.86 | 100.35 | 77.08 | 93.76 | 94.84 | 98.17 | 98.05 | 97.59 | 130.7 | 107.52 | 91.27 | 117.9 | 95.77 | 96.12 | 81.73 | 97.33 | 101.11 | 89.13 | 
2 | CC1(C)CCc2cc(-c3ccn(S(=O)(=O)c4ccc(Cl)cc4)n3)ccc2O1 | 70.82 | 75.03 | 70.86 | 65.38 |  | 71.91 | 85.81 | 78.68 | 116.9 | 92.25 |  | 54.5 | 100.71 | 76.35 | 64.29 | 8 | 72.79 | 88.3 |  | 45.51
3 | Cc1ccc(NC(=O)c2sc3nc(-c4cccs4)ccc3c2N)cc1C | 88.5 | 89.05 | 94.6 | 80.3 | 117.67 | 82.68 | 101.83 | 110.27 | 112.33 | 82.1 | 118.51 | 103.49 | 115.16 | 116.18 | 131.91 | 106.34 | 100.59 | 103.5 |  | 82.09
4 | O=C1N=C(c2ccccc2)S/C1=C\c1ccc2c(c1)OCO2 | 80.95 | 91.01 | 101.51 | 109.24 | 101.91 | 111.12 | 103.92 | 97.51 | 101.56 | 110.33 | 94.49 | 98.04 | 92.58 | 104.95 | 101.66 | 71.22 | 94.15 | 102.97 | 100.96 | 
5 | Cc1ccc(Cl)cc1NC(=O)c1sc2nc3c(cc2c1N)C(=O)CCC3 | 51.16 | 53.09 | 28.78 | 84.85 | 75.72 | 82.22 | -3.04 | 4.01 | 39.71 | 64.51 | 81.13 | 75.28 | 94.25 | 80.03 | 41.45 | 56.86 | 80.57 | 77.37 | 90.15 | 68.85
6 | O=C(Nc1nc2ccccc2s1)c1ccc(F)cc1 | 89.82 | 89.52 | 108.47 | 100.31 | 88.87 | 111.31 | 100.56 | 103.39 | 117.74 | 113.78 | 96.2 | 77.77 | 100.92 | 95.53 | 62.93 | 78.65 | 108.22 | 108.3 | 85.42 | 98.39
7 | N#Cc1ccc(-n2nnc3ccccc32)cc1C#N | 72.76 | 94.5 | 108.03 | 93.32 | 103.62 | 107.7 | 85.25 | 91.5 | 104.26 |  | 96.58 | 79.18 | 110.44 | 111.41 | 85.44 | 103.19 | 101.03 | 93.52 | 110.46 | 
8 | Nc1c(C(=O)NCc2ccccc2)sc2nc3c(cc12)C(=O)CCC3 | 100.49 | 115.69 | 116.55 | 119.87 | 124.94 | 119.79 |  |  | 133.04 | 121.61 | 139.75 |  | 113.08 | 111.36 |  | 79.65 | 101.11 | 127.66 | 117.19 | 116.81
9 | Cc1ccc(NC(=O)c2sc3nc4c(cc3c2N)C(=O)CCC4)c(Br)c1 | 83.73 | 95.44 | 107.12 | 103.27 | 112.76 | 111.67 | 94.29 | 91.32 | 113.39 |  | 95.81 | 89.55 | 105.13 | 118.27 | 94.2 | 107.03 | 94.31 | 108.79 | 105.66 | 
10 | CC1(C)CCc2cc(-c3ccn(S(=O)(=O)c4ccccc4Cl)n3)ccc2O1 | 71.86 | 81.14 | 33.37 | 64.66 | 113.61 | 81.19 | 98.73 |  | 88.88 | 102.25 | 98.68 | 67.03 | 92.37 | 99.59 | 101.05 | 49.12 | 75.88 | 93.97 |  | 72.9
11 | Clc1ccccc1Nc1nnc(-c2ccncc2)s1 | 92.09 | 95.3 | 105.3 | 93.42 | 100.52 | 79.12 | 93.62 | 88.68 | 114.33 | 106.68 | 108.85 | 91.68 | 106.94 | 107.89 | 90.5 | 93.87 | 86 |  | 94.51 | 
12 | COc1ccc(S(=O)(=O)n2ccc(-c3ccc4c(c3)CCC(C)(C)O4)n2)cc1 | 89.14 | 50.48 | 84.48 | 65.89 | 90.82 | 60.02 | 74.3 | 47.66 | 107.28 | 84.41 | 109.7 | 51.56 | 108.8 | 87.67 | 63.3 | 61.38 | 97.48 |  | 52.32 | 
13 | N#Cc1ccc(NC(=O)c2sc3nc4c(cc3c2N)C(=O)CCC4)cc1 | 79.55 | 99.27 | 84.91 | 114.77 | 113.1 | 81.02 | 97.44 | 82.4 | 108.98 | 83 | 89.34 | 93.58 | 89.16 | 109.01 | 93.27 | 95.57 | 98.35 | 94.94 | 105.84 | 
14 | O=C(Nc1ccc2oc(=O)ccc2c1)c1ccc(-c2ccc(Br)cc2)o1 | 101.8 | 104.75 | 108.43 | 96.93 | 126.49 | 101.52 | 112.48 |  | 124.46 | 121.49 | 130.92 | 113.5 | 121.34 | 104.85 | 183.36 | 97.44 | 99.06 | 109.38 |  | 102.2
15 | Nc1c(C(=O)Nc2ccccc2F)sc2nc3c(cc12)C(=O)CCC3 | -1.01 | 23.7 | 12.19 | 73.64 |  | 3387 | -25.93 | 3.17 | 5.76 | 42.64 |  | 56.31 | 71.12 | 48.88 | 4.36 | 53.65 | 49.76 | 8.4 |  | 36.7
16 | COc1cc(/C=c2/sc3nc4ccccc4n3c2=O)cc(I)c1O | 69.55 | 79.91 | 104.58 | 78.31 | 110.46 | 81.81 | 97.54 | 88.17 | 103.31 | 104.64 | 109 | 92.52 | 102.12 | 107.43 | 79.77 | 93.81 | 101.23 | 102.39 | 96.8 | 
17 | O=C(NCc1cccnc1)c1sc2cc([N+](=O)[O-])ccc2c1Cl | 66.73 | 89.48 | 106.56 | 93.36 | 106.67 | 110.91 | 95.22 | 92.94 | 118.05 |  | 105.28 | 90.5 | 105.26 | 117.28 | 85.26 | 98.76 | 92.4 | 105.44 | 102.6 | 
18 | Cc1ccc(CNC(=O)c2[nH]c3ccccc3c2Cl)cc1 | 69 | 100.21 | 100.16 | 91.47 | 99.38 | 113.42 |  | 94.21 | 99.99 | 99.35 | 116.06 | 91.13 | 108.38 | 112.08 | 90.46 | 81.7 | 99.14 | 97.89 | 101.65 | 
